Legend:
[1] = test system: phenylbenzoquinone-induced reactions (stretching of the body); assay: Antalgic activity: inhibition of phenylbenzoquinone-induced stretching; assay type: in vivo; details: Mus musculus, 1 h, read-out: percentage inhibition relative to control animals; for inhibition in vivo at 16 mg/kg / inhibition in vivo at 64 mg/kg / inhibition in vivo at 32 mg/kg: mice, oral; for inhibition in vivo at 128 mg/kg: po
Method: (§1) The products tested are dissolved in a […] sodium chloride solution or, if they are insoluble in this solution, suspended using "Tween 80" (for oral and intraperitoneal administration) or dissolved in polyethylene glycol 300 (for intravenous administration).
The products to be tested are administered orally to batches of six mice each weighing 19-21 g. One hour afterwards, 0.20 ml. of an aqueous-alcoholic solution containing 0.02% of phenylbenzoquinone (phenylbenzoquinone: 20 mg, 96% alcohol; 5 ml; water q.s.p. 100 ml) is injected intraperitoneally. The number of reactions (stretching of the body) from the 5th to the 10th minutes following the injection of phenylbenzoquinone is counted.
Table IV gives the percentage inhibition relative to control animals. __________________________________________________________________________ Compound of Example No. Dose, mg/kg 1 2 3 administered and 4 5 7 9 10 11 12 13 14 15 16 18 19 20 orally 6 17 8 __________________________________________________________________________ 16 10 57 -- 23 -- 25 14 21 22 45 24 35 29 40 43 3 26 32 -- 38 37 -- 0 -- -- -- -- -- -- -- -- -- -- -- -- 64 31 63 -- 17 -- 25 19 46 38 36 24 38 29 28 55 26 38 128 -- -- 41 -- 19 -- -- -- -- -- -- -- -- -- -- -- -- __________________________________________________________________________

rats = assay: Acute toxicity, lethal doses two days after intraperitoneal treatment; assay type: in vivo; details: rat
Method: as §1
The acute toxicity is determined on batches, each of two rats. The doses administered extend from 4 to 512 mg./kg. in geometrical progression, constant ratio 2.
Table II below gives the 0 to 100 (%) lethal doses, two days after treatment, in mg./kg. administered intraperitoneally.

[2] = Solubility under the conditions of the local anaesthetic test; assay type: physicochemical; details: sodium chloride solution, pH of 6 to 7
Method: This is investigated by the technique of Bulbring and Wajda. The backs of male guinea pigs weighing 350-450 g. are shaved with an electric razor. 0.1 ml. of a solution of the compounds to be tested is injected into the dermis (only those products which are soluble in the sodium chloride solution and give a pH of 6 to 7 are examined). Four points spaced 2 cm apart are marked on the skin, the product being administered at two of these and the solvent being administered at the remaining two. The skin reflex is examined by pricking each point six times with a mounted bristle. The number of positive reactions is counted and an inhibition percentage is calculated from the total number of positive reactions over the course of 30 minutes. Table V gives the inhibition percentages measured as a function of the concentrations of the solutions. The compounds of Examples 7, 18 and 19 are insoluble under the experimental conditions.

[3] = test system: cough reaction to stimulation of the upper laryngeal nerves; assay: Anti-tussive activity: Domenjoz method (stimulation of upper laryngeal nerves); assay type: in vivo, cat; parameters: key: 0: inactive; +: marked diminution of cough; ++: suppression of cough for 5 to 15 minutes; +++: suppression of cough for more than 15 minutes; details: anaesthetised cats, intravenous (femoral vein)
Method: as §1
Cats are anaesthetised by intraperitoneal injection of 30 mg./kg. of sodium mebubarbital. The arterial pressure is measured on the femoral artery by a Statham P 23 Db gauge. A tracheotomy is carried out; a Y-shaped cannula allows a part of the air breathed out to be branched off onto a Statham PM 6 gauge; the cardiac rhythm is measured by integration of the QRS complexes of the electrocardiogram. All these measurements are amplified and recorded on a Beckman Dynograph. The two upper laryngeal nerves are very carefully dissected and stimulated for 10 seconds by a surging current generated by a Hugo Sachs Stimulator I: voltage 3 volts, duration […], frequency 50 cycles/second. The test products are injected into the femoral vein. The first stimulation takes place 5 minutes after administration of the product and then every 5 minutes until the reaction returns to the initial amplitude. Each nerve is stimulated in turn (left-hand nerve: 5, 15, 25 minutes etc; right-hand nerve 10, […] minutes etc. after treatment).
+ marked diminution of cough
++ suppression of cough for 5 to 15 minutes
+++ suppression of cough for more than 15 minutes

[4] = test system: subjects suffering from chronic bronchitis; assay: Clinical experiments on subjects suffering from chronic bronchitis; assay type: in vivo, human; details: subjects with chronic bronchitis
Method: Clinical experiments were also carried out with the product of Example 1 on subjects suffering from chronic bronchitis.

## CN(C)CCOC(=O)C1CC1(c1ccccc1)c1ccccc1 (centres unmarked) [Example 4]
[1]
  inhibition in vivo at 16 mg/kg: 23%
  inhibition in vivo at 64 mg/kg: 17%
rats
  LD0: 128 mg/kg
  LD100: 256 mg/kg

## O=C(OCCOCCN1CCCCC1)C1CC1(c1ccccc1)c1ccccc1 (centres unmarked) [Example 18]
[1]
  inhibition in vivo at 16 mg/kg: 43%
  inhibition in vivo at 64 mg/kg: 55%
[2]
  solubility under the experimental conditions: insoluble
rats
  LD0: 64 mg/kg
  LD100: 256 mg/kg

## CC1CCCN(CCOC(=O)C2CC2(c2ccccc2)c2ccccc2)C1 (centres unmarked) [Example 10]
[1]
  inhibition in vivo at 16 mg/kg: 21%
  inhibition in vivo at 64 mg/kg: 46%
rats
  LD0: 64 mg/kg
  LD100: 256 mg/kg

## Cc1ccc(C2(c3ccc(C)cc3)CC2C(=O)OCCN2CCCCC2)cc1 (centres unmarked) [Example 14]
[1]
  inhibition in vivo at 16 mg/kg: 35%
  inhibition in vivo at 64 mg/kg: 38%
rats
  LD0: 256 mg/kg
  LD100: 512 mg/kg

## COc1ccc(C2(c3ccc(OC)cc3)CC2C(=O)OCCN2CCCCC2)cc1 (centres unmarked) [Example 16]
[1]
  inhibition in vivo at 16 mg/kg: 40%
  inhibition in vivo at 64 mg/kg: 28%
[3]
  Rating (anti-tussive activity): +
rats
  LD0: 128 mg/kg
  LD100: 512 mg/kg

## O=C(OCCN1CCCCC1)C1CC1(c1ccccc1)c1ccccc1 (stereo not drawn) [Example 1, β-Piperidino-ethyl ester of 2,2-diphenyl-cyclopropane-carboxylic acid]
[1]
  inhibition in vivo at 16 mg/kg: 10%
  inhibition in vivo at 64 mg/kg: 31%
[4]
  effect on cough: suppression of the cough
  facilitation of expectoration: facilitation of expectoration
  sensation of feeling better: a sensation of feeling better
[4]; "the latter" = expectoration
  reduction in expectoration: a reduction in the latter
rats
  LD0: 64 mg/kg
  LD100: 128 mg/kg

## CC1CCCC(C)N1CCOC(=O)C1CC1(c1ccccc1)c1ccccc1 (centres unmarked) [Example 12]
[1]
  inhibition in vivo at 16 mg/kg: 45%
  inhibition in vivo at 64 mg/kg: 36%
rats
  LD0: 32 mg/kg
  LD100: 128 mg/kg

## O=C(OCCOCCN1CCCCCC1)C1CC1(c1ccccc1)c1ccccc1 (centres unmarked) [Example 19]
[1]
  inhibition in vivo at 16 mg/kg: 3%
  inhibition in vivo at 64 mg/kg: 26%
[2]
  solubility under the experimental conditions: insoluble
[3]
  Rating (anti-tussive activity): +
rats
  LD0: 64 mg/kg
  LD100: 128 mg/kg

## O=C(OCCN1CCCCCC1)C1CC1(c1ccccc1)c1ccccc1 (centres unmarked) [Example 7]
[1]
  inhibition in vivo at 16 mg/kg: 25%
  inhibition in vivo at 64 mg/kg: 25%
[2]
  solubility under the experimental conditions: insoluble
rats
  LD0: 64 mg/kg
  LD100: 128 mg/kg

## O=C(OCCOCCN1CCCC1)C1CC1(c1ccccc1)c1ccccc1 (centres unmarked) [Example 2, 2-(2'-pyrrolidino-ethoxy)-ethyl ester of 2,2-diphenyl-cyclopropane carboxylic acid]
[1]
  inhibition in vivo at 16 mg/kg: 57%
  inhibition in vivo at 32 mg/kg: 38%
  inhibition in vivo at 64 mg/kg: 63%
[3]
  Rating (anti-tussive activity): +
rats
  LD0: 32 mg/kg
  LD100: 128 mg/kg

## O=C(OCCN1CCCCC1)C1CC1(c1ccc(Cl)cc1)c1ccc(Cl)cc1 (centres unmarked) [Example 15]
[1]
  inhibition in vivo at 16 mg/kg: 29%
  inhibition in vivo at 64 mg/kg: 29%
[3]
  Rating (anti-tussive activity): +
rats
  LD0: 128 mg/kg
  LD100: 256 mg/kg

## O=C(OCCN1CCCC1)C1CC1(c1ccccc1)c1ccccc1 (centres unmarked) [Example 5]
[1]
  inhibition in vivo at 32 mg/kg: 0%
  inhibition in vivo at 128 mg/kg: 19%
rats
  LD0: 128 mg/kg
  LD100: 256 mg/kg

## CC1CCN(CCOC(=O)C2CC2(c2ccccc2)c2ccccc2)CC1 (centres unmarked) [Example 11]
[1]
  inhibition in vivo at 16 mg/kg: 22%
  inhibition in vivo at 64 mg/kg: 38%
[3]
  Rating (anti-tussive activity): +
rats
  LD0: 64 mg/kg
  LD100: 256 mg/kg

## Cc1ccc(C2(c3ccc(C)cc3)CC2C(=O)OCCN2CCCC2)cc1 (centres unmarked) [Example 13]
[1]
  inhibition in vivo at 16 mg/kg: 24%
  inhibition in vivo at 64 mg/kg: 24%
rats
  LD0: 128 mg/kg
  LD100: 256 mg/kg

## CN1CCN(CCOC(=O)C2CC2(c2ccccc2)c2ccccc2)CC1 (centres unmarked) [Example 9]
[1]
  inhibition in vivo at 16 mg/kg: 14%
  inhibition in vivo at 64 mg/kg: 19%
[3]
  Rating (anti-tussive activity): +
rats
  LD0: 64 mg/kg
  LD100: 128 mg/kg

## CN1CCN(CCOCCOC(=O)C2CC2(c2ccccc2)c2ccccc2)CC1 (centres unmarked) [Example 20]
[1]
  inhibition in vivo at 16 mg/kg: 26%
  inhibition in vivo at 64 mg/kg: 38%
[3]
  Rating (anti-tussive activity): +
rats
  LD0: 64 mg/kg
  LD100: 128 mg/kg

## O=C(OCCN1CCOCC1)C1CC1(c1ccccc1)c1ccccc1 (stereo not drawn) [Example 3, β-Morpholino-ethyl ester of 2,2-diphenyl-cyclopropane-carboxylic acid]
[1]
  inhibition in vivo at 32 mg/kg: 37%
  inhibition in vivo at 128 mg/kg: 41%
rats
  LD0: 128 mg/kg
  LD100: 256 mg/kg

Reference: US3937832A, “Esters of 2,2-diphenyl-cyclopropane-carboxylic acids as cough suppressants” (Societe anonyme dite: Hexachimie, priority 1974, dated 1976)
